Key:
Assay in all cases: relative viability (nuclei count vs DMSO), 5 days (fraction); higher = more cells survive
[1] = compound: C1COCCN1C2=NC(=NC3=C2OC4=C3C=CC=N4)C5=CC(=CC=C5)NC(=O)C6=CN=C(C=C6)N
Procedure, shortened: (§1)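 Acceptance criteria were a control CV below 25% and at least one doubling per plate. Lung cancer cell lines in 1536-well plates got five library-drug doses (not always all listed) √10 apart by pinning and were left 5 days with no medium change. Viability divides treated-well nuclei by vehicle-well nuclei and is the median across plates. Nuclei were counted by MetaXpress from 4× Hoechst images.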

SGI-1776 = compound: CN1CCC(CNc2ccc3ncc(-c4cccc(OC(F)(F)F)c4)n3n2)CC1 [SGI-1776]
Procedure, shortened: as §1

Entinostat = compound: Nc1ccccc1NC(=O)c1ccc(CNC(=O)OCc2cccnc2)cc1 [Entinostat]
Procedure, shortened: as §1

Row | Cell Line | relative viability ([1]; 0.02 µM) | relative viability ([1]; 0.06325 µM) | relative viability ([1]; 0.2 µM) | relative viability ([1]; 0.6325 µM) | relative viability ([1]; 2 µM) | relative viability (SGI-1776; 0.08 µM) | relative viability (SGI-1776; 0.8 µM) | relative viability (SGI-1776; 2.53 µM) | relative viability (SGI-1776; 8 µM) | relative viability (Entinostat; 0.02 µM) | relative viability (Entinostat; 0.06325 µM) | relative viability (Entinostat; 0.2 µM) | relative viability (Entinostat; 0.6325 µM) | relative viability (Entinostat; 2 µM)
1 | NCI-H2085 | 0.936 | 1.03 | 1.01 | 0.946 | 0.75 | 0.95 | 1.07 | 1.03 | 0.9 | 0.98 | 0.974 | 1 | 0.756 | 0.559
2 | NCI-H2087 | 1.06 | 1.22 | 1.06 | 0.956 | 0.65 | 1.2 | 1.08 | 0.995 | 0.956 | 1.02 | 0.983 | 0.981 | 0.49 | 0.345
3 | NCI-H2126 | 0.985 | 0.981 | 1.01 | 1.01 | 0.745 | 0.967 | 1.06 | 0.983 | 0.91 | 1.04 | 1.06 | 0.951 | 0.618 | 0.503
4 | NCI-H2170 | 1 | 1.07 | 1.06 | 0.995 | 0.773 | 0.947 | 1 | 0.961 | 0.893 | 0.995 | 0.996 | 0.984 | 0.708 | 0.525
5 | NCI-H2228 | 0.899 | 1.16 | 1.01 | 0.92 | 0.418 | 0.966 | 1.02 | 0.808 | 0.71 | 0.852 | 1.01 | 0.944 | 0.625 | 0.359
6 | NCI-H2342 | 1 | 1.1 | 0.938 | 0.928 | 0.827 | 1.1 | 0.927 | 0.914 | 1.07 | 1.07 | 1.08 | 0.907 | 0.908 | 0.73
7 | NCI-H2347 | 0.983 | 1.09 | 1.09 | 0.977 | 0.741 | 1.13 | 1.08 | 1.02 | 0.963 | 1.03 | 0.992 | 0.91 | 0.521 | 0.366
8 | NCI-H2405 | 0.987 | 1.05 | 0.97 | 0.953 | 0.779 | 1.04 | 1.08 | 0.793 | 0.826 | 1.03 | 1.15 | 0.972 | 0.915 | 0.609
9 | NCI-H3122 | 1.03 | 1.01 | 1.01 | 1.05 | 0.862 | 1.03 | 0.99 | 1.04 | 1.05 | 1 | 1.03 | 1.02 | 0.959 | 0.677
10 | PC-3 [JPC-3] | 1.06 | 1.05 | 1.06 | 1.03 | 0.927 | 1.07 | 1.09 | 1.01 | 0.805 | 1.03 | 1.01 | 1.02 | 0.57 | 0.488
11 | PC-14 | 0.974 | 1.14 | 1.03 | 0.852 | 0.525 | 1.09 | 1.03 | 0.972 | 0.491 | 1.08 | 1.11 | 1.06 | 0.424 | 0.14
12 | RERF-LC-KJ | 1.01 | 1.05 | 0.973 | 0.928 | 0.743 | 1.03 | 1 | 0.957 | 0.843 | 0.952 | 0.986 | 0.922 | 0.631 | 0.297
13 | SK-LU-1 | 1.11 | 1.12 | 1.03 | 1.01 | 0.554 | 1.23 | 1.09 | 1.03 | 0.839 | 1.01 | 1.08 | 1.02 | 0.698 | 0.57
14 | SK-MES-1 | 1.02 | 1.08 | 0.925 | 0.868 | 0.673 | 1.06 | 1.07 | 1 | 0.868 | 1.01 | 1.15 | 1.19 | 1.02 | 0.701
15 | SW 900 | 0.759 | 1.01 | 0.87 | 0.784 | 0.76 | 0.891 | 1.01 | 0.746 | 0.526 | 0.92 | 0.944 | 0.92 | 0.748 | 0.519
16 | SW 1573 | 0.954 | 1.09 | 1.03 | 0.918 | 0.611 | 1.06 | 0.965 | 0.959 | 0.754 | 0.998 | 1.11 | 1.09 | 1 | 0.874

— the supplement of paper PMC10307832
